Experimental data as given in PubChem BioAssay (NCI).
Values joined by “and” are separate entries in the source; they are usually repeats but may differ in a detail not shown here. Equal values may be shown once.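 1) Cells in 96-well plates. 2) Compound, 48 h, 5 concentrations. 3) Linear interpolation between surrounding doses. 4) Unreached endpoint = highest concentration. The concentration for 50% growth inhibition is given as GI50. TGI is the concentration that stops growth completely.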

These molecules were tested on HCT-116 colon (assay: growth of human tumour cells (NCI), 48 h).

SMILES	TGI	GI50
COC(c1ccc(C(C)(C)C)cc1)(c1ccc(C(C)(C)C)cc1)c1ccc(C(C)(C)C)cc1	> 100 µM	
CC(C)c1[nH]nc2c1N=C(c1ccccc1Cl)c1cc([N+](=O)[O-])ccc1N2	> 25 µM	4.35 µM
COc1ccc(-c2nccn2-c2ccc(OC)cc2)cc1	44.4 µM	16.4 µM
O=C(/C=C/c1ccccc1)c1ccccc1	4.55 µM	
CC(C)[C@H](O)C(=O)N[C@@H](C)C(=O)N[C@@H]1C(=O)N(C)CCc2ccccc21	> 100 µM	> 100 µM
C=CC(=O)N1CN(C(=O)C=C)CN(C(=O)C=C)C1	3.33 µM	1.77 µM
COc1ccc(-c2cnnn2-c2nonc2-n2cccc2)cc1		0.354 µM
C#CCOc1cccc(Nc2ncnc3c(NC(=O)C=C)cccc23)c1	85.9 µM	17 µM
O=C(/C(=C\c1c(-c2ccccc2)[nH]c2ccccc12)S(=O)(=O)c1ccccc1)c1ccccc1	> 100 µM	4.89 µM
COc1ccc(C(=O)c2cc(OC)c(OC)c(OC)c2)cc1OC	> 100 µM	
O=C1c2ccccc2-c2c1c1ccccc1c(=O)n2CCN1CCNCC1	3.97 µM	0.573 µM
CCCc1cc(=O)n2c(C(=O)Nc3ccc(Cl)cc3C)c(C(=O)Nc3ccc(F)cc3)sc2n1	> 150 µM	2.53 µM
Cc1ccc(OCCOCCOCCOCCOc2ccc(C)n(O)c2=S)c(=S)n1O	> 100 µM	< 0.01 µM
COc1c(C)n(CCO)ccc1=O	> 100 µM	
COc1ccc(-c2ccc3c(N4CCOC[C@@H]4C)nc(N4CCOC[C@@H]4C)nc3n2)cc1CO	> 100 µM	0.00858 µM and 0.0734 µM
N[C@H](CCC(=O)N[C@@H](Cc1c[nH]c2ccccc12)C(=O)O)C(=O)O	> 100 µM	> 100 µM

SMILES	TGI	GI50
COC(=O)c1cc2c(o1)-c1nccc3c1c(nc1ccccc13)C2=O	5.95 µM	1.92 µM
Nc1ccccc1O.O.O=C(O)C1[O][Sb][O]C1C(=O)O (stereo unspecified)	39.6 µM	17.8 µM
O=C(c1ccco1)c1c(C(F)(F)F)n([O-])c2ccc(C(F)(F)F)cc2[n+]1=O	0.279 µM	0.147 µM
OC(c1cc(-c2ccc(C(F)(F)F)cc2)nc(C(F)(F)F)c1)C1CCCCN1 (stereo unspecified)	2.87 µM and 3.47 µM	1.53 µM
O=C(Nc1cc(Nc2ncccc2-c2ncnc3nc[nH]c23)ccc1F)c1cc(C(F)(F)F)cc(C(F)(F)F)c1	2.72 µM	0.601 µM
CC1(C)CN=C(NN=C(/C=C/c2ccc(C(F)(F)F)cc2)/C=C/c2ccc(C(F)(F)F)cc2)NC1	2.75 µM	1.32 µM
CCCCCCCCCCNC(=O)CI	3.07 µM	1.65 µM
CCc1ccc2c(c1)C(=O)c1c-2n(CCCN=[N+]=[N-])c(=O)c2cc([N+](=O)[O-])ccc12	> 50 µM	> 50 µM
Cc1cc(N/N=C/c2ccccn2)nc2ccccc12	5.81 µM	0.393 µM
Cn1c(=O)c2c(nc(C(=N)SCC(=O)O)n2C)n(C)c1=O	> 100 µM	
COc1ccc(C(CC(=O)c2ccc3c(c2)OCO3)c2c(O)c3ccccc3oc2=O)cc1OC (stereo unspecified)	> 100 µM	
Nc1cc(Br)c(-c2nnc(CCC(=O)c3nc4ccccc4[nH]3)o2)c(Br)c1	> 100 µM	8.26 µM
CC(C)(C)[Si](C)(C)OC1[C@@H](CNC(=O)NC(=O)CCl)O[C@@H](n2cnc3c(N)ncnc32)[C@H]1O[Si](C)(C)C(C)(C)C (stereo partly specified)	1.51 µM	0.795 µM
COc1ccc(/C(C)=C(\c2ccc(OCCN3CCCCCC3)cc2)c2ccc(OC(=O)C3CCCCC3)cc2)cc1	2.47 µM	0.638 µM
Cn1c(=O)nc2n(-c3cc(C(F)(F)F)cc(C(F)(F)F)c3)c3ccccc3nc-2c1=O	> 100 µM	

These molecules were tested on LOX IMVI melanoma (assay: growth of human tumour cells (NCI), 48 h).

SMILES	GI50	TGI
O=C(NCc1ccc(Cn2c(=O)sn(-c3ccccc3)c2=O)cc1)OCc1ccc2cccc(O)c2n1	0.273 µM	0.955 µM
